# Test results: PMC4638363, “Linear Interaction Energy Based Prediction of Cytochrome P450 1A2 Binding Affinities with Reliability Estimation” (PLoS ONE, 2015)
# Like-named read-outs stand apart in the source and are kept apart here.
# What was measured:
# human CYP 1A2 [1] = target: T1, human CYP 1A2 (Homo sapiens, UniProt P05177); conditions: for ΔG bind (inhouse): human, 10 min, pH 7.4
# T1 sequence (P05177 1-516): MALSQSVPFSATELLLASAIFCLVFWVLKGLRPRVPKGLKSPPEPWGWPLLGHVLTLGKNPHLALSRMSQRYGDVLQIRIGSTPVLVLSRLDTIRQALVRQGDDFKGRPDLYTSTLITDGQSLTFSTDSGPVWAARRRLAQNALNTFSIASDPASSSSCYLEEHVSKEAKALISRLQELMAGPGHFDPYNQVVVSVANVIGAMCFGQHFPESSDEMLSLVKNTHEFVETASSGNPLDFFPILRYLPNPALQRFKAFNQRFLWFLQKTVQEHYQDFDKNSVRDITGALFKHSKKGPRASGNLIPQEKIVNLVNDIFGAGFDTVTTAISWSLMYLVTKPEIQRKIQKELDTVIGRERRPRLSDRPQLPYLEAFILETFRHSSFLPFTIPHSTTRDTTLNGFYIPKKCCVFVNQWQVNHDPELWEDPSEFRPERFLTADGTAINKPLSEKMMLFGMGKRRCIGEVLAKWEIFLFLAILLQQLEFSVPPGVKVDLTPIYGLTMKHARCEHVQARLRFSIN
# human CYP 1A2 [2] = target: T1, human CYP 1A2; experiment: in-house CYP 1A2 inhibition assay with 7-methoxyresorufin as substrate (resorufin fluorescence); conditions: for ΔΔG bind: difference in ΔG bind between literature and in-house determined values; for ΔG bind (inhouse): from in-house IC50 via Cheng-Prusoff and RTln(Ki)
# CYP 1A2 [3] = experiment: Source 1: Bayer HealthCare screen, phenacetin as substrate probe on pooled human liver microsomes; conditions: for ΔG bind (lit): from literature IC50, Source 1 (Ref. 57); for ΔGbind^Obs: from literature IC50, Source 1
# CYP 1A2 [4] = conditions: cited from earlier work
# CYP 1A2 [5] = conditions: cited from earlier work; remark: listed apart in the source
# human CYP 1A2 [6] = target: T1, human CYP 1A2
# CYP 1A2 [7] = conditions: human
# CYP 1A2 [8] = conditions: for ΔGbind^Obs: training set, from literature IC50, Source 2
# CYP 1A2 [9] = conditions: cited from earlier work; remark: listed apart in the source
# recombinant CYP 1A2 [10] = conditions: recombinant enzyme; cited from earlier work
# recombinant CYP 1A2 [11] = conditions: human
# [12] = read-out: IC 50 (lit), Source 1, pooled human liver microsomes, phenacetin probe
# [13] = Table A, Source 1, ref Bayer HealthCare databases for CYP inhibition (eTOX)
# [14] = Table A, Source 2, ref Cohen et al., Drug Metab. Dispos. 2003
compound,measurement,setting,value
COc1ccc2nc3ccc(=O)cc-3oc2c1 [7-Methoxyresorufin],K m,human CYP 1A2 [1],2.5 µM
"Cc1cccc(Nc2ccccc2C(=O)O)c1C [Compound 1, Mefenamic Acid]",IC50,human CYP 1A2 [2],19 ± 7 µM
same,ΔΔG bind,human CYP 1A2 [2],-0.19 kcal/mol
same,ΔG bind (inhouse),human CYP 1A2 [2],-6.91 ± 0.239 kcal/mol
same,ΔG bind (lit),CYP 1A2 [3],-7.1 kcal/mol
same,ΔGbind^Obs,CYP 1A2 [3]; training set,-7.1 kcal/mol
same,IC50,CYP 1A2 [4]; [12],14 µM
same,Reported inhibition mechanism,CYP 1A2 [5]; literature,Competitive^60
same,Residual (ΔGbind^Obs—ΔGbind^Calc),human CYP 1A2 [6]; training set,1.03 kcal/mol
"Nc1c2c(nc3ccccc13)CCCC2 [Compound 2, Tacrine]",IC50,human CYP 1A2 [2],2.3 ± 1 µM
same,ΔG bind (lit),CYP 1A2 [7],-7.67 kcal/mol
same,ΔGbind^Obs,CYP 1A2 [7],-7.7 kcal/mol
same,IC50,CYP 1A2 [4]; microsomes,5.2 µM
same,ΔΔG bind,human CYP 1A2 [1],0.502 kcal/mol
same,ΔG bind (inhouse),human CYP 1A2 [1],-8.17 ± 0.287 kcal/mol
same,Reported inhibition mechanism,CYP 1A2 [5],Substrate^61
same,Residual (ΔGbind^Obs—ΔGbind^Calc),human CYP 1A2 [6],-0.669 kcal/mol
"COc1ccccc1OCCNCC(O)COc1cccc2[nH]c3ccccc3c12 (stereo not drawn) [Compound 3, Carvedilol]",IC50,human CYP 1A2 [2],5 ± 0.2 µM
same,ΔΔG bind,human CYP 1A2 [2],0.096 kcal/mol
same,ΔG bind (inhouse),human CYP 1A2 [2],-7.7 ± 0.024 kcal/mol
same,ΔG bind (lit),CYP 1A2 [3],-7.6 kcal/mol
same,IC50,CYP 1A2 [4]; [13],5.1 µM
same,IC50,CYP 1A2 [4]; [12],5.91 µM
same,Reported inhibition mechanism,CYP 1A2 [5]; literature,Substrate^62
"CCOc1ccc(NC(C)=O)cc1 [Compound 6, Phenacetin]",ΔG bind (lit),"CYP 1A2 [8]; from literature IC50, Source 2 (Ref. 58)",[…]
same,Reported inhibition mechanism,CYP 1A2 [5]; literature,Substrate^64
"Oc1ccc2ccccc2c1 [Compound 10, 2-naphthol]",IC50,recombinant CYP 1A2 [10],17 ± 1.5 µM
same,IC50,human CYP 1A2 [2],4.4 ± 1.2 µM
same,ΔG bind (lit),recombinant CYP 1A2 [11],-6.96 ± 0.048 kcal/mol
same,ΔGbind^Obs,recombinant CYP 1A2 [11],-6.96 kcal/mol
same,ΔΔG bind,human CYP 1A2 [1],0.813 kcal/mol
same,ΔG bind (inhouse),human CYP 1A2 [1],-7.79 ± 0.17 kcal/mol
same,"Residual (ΔGbind^Obs–ΔG bind ^Calc), error in prediction",human CYP 1A2 [6],-1.55 kcal/mol
"O=c1c(O)c(-c2ccc(O)c(O)c2)oc2cc(O)cc(O)c12 [Compound 14, Quercetin]",ΔGbind^Obs,CYP 1A2 [3]; test set,[…]
same,Reported inhibition mechanism,CYP 1A2 [5]; literature,Competitive^67
"O=C(O)c1cccnc1Nc1cccc(C(F)(F)F)c1 [Compound 16, Niflumic Acid]",ΔGbind^Obs,CYP 1A2 [3]; training set,-7.22 kcal/mol
same,IC50,CYP 1A2 [4]; [13],11.6 µM
same,Residual (ΔGbind^Obs—ΔGbind^Calc),human CYP 1A2 [6]; training set,0.693 kcal/mol
"O=C1C[C@@H](c2ccc(O)cc2)Oc2cc(O)cc(O)c21 [Compound 17, Naringenin]",ΔGbind^Obs,CYP 1A2 [3]; test set,-7.17 kcal/mol
same,IC50,CYP 1A2 [4]; [13],12.3 µM
same,Reported inhibition mechanism,CYP 1A2 [5]; literature,Substrate^68
"C[C@]12CC[C@@H]3c4cc(F)c(O)cc4CC[C@H]3[C@@H]1CC[C@@H]2O [Compound 20, 2-Fluoroestradiol]",ΔGbind^Obs,CYP 1A2 [3]; test set,-6.72 kcal/mol
same,IC50,CYP 1A2 [4]; [13],26.8 µM
same,"Residual (ΔGbind^Obs–ΔG bind ^Calc), error in prediction",human CYP 1A2 [6]; test set,1.67 kcal/mol
"Cc1cccc(C)c1OCC(C)N (stereo not drawn) [Compound 23, Mexiletine]",ΔGbind^Obs,CYP 1A2 [8],-8.32 kcal/mol
same,IC50,CYP 1A2 [9]; [14],1.84 µM
same,Reported inhibition mechanism,CYP 1A2 [5]; literature,Competitive^70
same,Residual (ΔGbind^Obs—ΔGbind^Calc),human CYP 1A2 [6]; training set,-1.86 kcal/mol
"CC(C)NCC(O)COc1cccc2ccccc12 (stereo not drawn) [Compound 25, Propranolol]",ΔGbind^Obs,CYP 1A2 [8],-7.86 kcal/mol
same,IC50,CYP 1A2 [9]; [14],3.84 µM
same,Reported inhibition mechanism,CYP 1A2 [5]; literature,Substrate^72
same,Residual (ΔGbind^Obs—ΔGbind^Calc),human CYP 1A2 [6]; training set,-0.263 kcal/mol
